# Values quoted from earlier work in paper PMC8528301 (PLoS ONE, 2021).
# Like-named read-outs stand apart in the source and are kept apart here.
# Assays:
# [1] = cited from earlier work; for Tmax: oral dosing
# CYP3A4 [2] = tested on: CYP3A4; design: method as in PMID 19282395; conditions: cited from earlier work
# CYP3A4 [3] = conditions: in vitro metabolic studies; humans; cited from earlier work
compound,measurement,setting,value
Cc1nc(Nc2ncc(C(=O)Nc3c(C)cccc3Cl)s2)cc(N2CCN(CCO)CC2)n1 [dasatinib],bioavailability,[1]; mice,17%
same,bioavailability,"[1]; one study, species not given",45–51%
same,Tmax,[1]; Mdr1a wild-type and KO mice,0.25 h
same,Tmax,[1]; nude female nude mice,2 h
same,"K(inact), CYP3A4 mechanism-based inactivation",CYP3A4 [2],0.034 min (-1)
same,KI (inactivation),"CYP3A4 [2]; read-out: K(I), CYP3A4 mechanism-based inactivation",6.3 µM
same,share of dasatinib metabolized by CYP3A4,CYP3A4 [3],98%
